The term Cmax denotes the peak of the concentration-time curve. Broadly, the half-life is the time needed for the level to fall by half in the phase considered. Read a low half-life as fast loss. As usually defined, the solubility (thermodynamic) is solubility found after equilibrating the solid with the medium. In general, Tmax refers to the time at which the peak concentration occurs. The term AUC(0-t) denotes exposure summed from dosing to a finite time, without extrapolation to infinity. What is called Ki is the dissociation constant of the complex between target and ligand, obtained from inhibition or displacement.

Data set [1] can be described thus: Toxicity in wild type mouse assessed as effect on kidney size. The note with it: in vivo.
Data set [2] is described as follows: Cmax in C57BL/6 mouse at 2 mg/kg, sc by LC-MS analysis. To be noted: in vivo. Set-up: dose 2 mg/kg, route sc. In kind it is ADME, organism-based.
Data set [3] can be described thus: Half life in C57BL/6 mouse at 2 mg/kg, sc by LC-MS analysis. In kind it is ADME, organism-based. To be noted: in vivo.
Data set [4] is described as follows: Toxicity in wild type mouse assessed as effect on body weight. The note with it: in vivo.
Data set [5] is described as follows: Elimination rate constant in C57BL/6 mouse at 2 mg/kg, sc by LC-MS analysis. The note with it: in vivo. In kind it is ADME, organism-based.
Data set [6] is described as follows: Equilibrium solubility of compound in water incubated for 24 hrs by UV-spectroscopy method. In kind it is physicochemical.
A short description of data set [7]: Tmax in C57BL/6 mouse at 2 mg/kg, sc by LC-MS analysis. In kind it is ADME, organism-based. The note with it: in vivo.
Data set [8] is described as follows: AUC (0 to t) in C57BL/6 mouse at 2 mg/kg, sc by LC-MS analysis. In kind it is ADME, organism-based. Details: dose 2 mg/kg, route sc. To be noted: in vivo.
A further data set concerns the target Vasopressin V2 receptor (Homo sapiens, UniProt P30518). Description: Displacement of conivaptan-red from SNAP-tagged V2 receptor (unknown origin) expressed in HEK293 cells assessed as inhibition constant measured after 2 hrs by HTRF assay. In kind it is cell-based. Background: In TR-FRET formats the signal depends on donor and acceptor labels being close together.

The nature of data set [9]: Toxicity in wild type mouse assessed as effect on body weight at 2 mg/kg. In kind it is organism-based. To be noted: in vivo.
Data set [10] concerns the target Vasopressin V2 receptor (Rattus norvegicus) (UniProt Q00788). Description: Ex vivo receptor occupancy at V2R in isolated perfused Sprague-Dawley rat kidney assessed as dissociation half life at 0.1 uM incubated for 30 mins by LC-MS analysis. In kind it is functional, tissue-based.

≈ marks a conversion by molar mass, not a printed value.

Vasopressin V2 receptor, sequence (P30518 whole entry): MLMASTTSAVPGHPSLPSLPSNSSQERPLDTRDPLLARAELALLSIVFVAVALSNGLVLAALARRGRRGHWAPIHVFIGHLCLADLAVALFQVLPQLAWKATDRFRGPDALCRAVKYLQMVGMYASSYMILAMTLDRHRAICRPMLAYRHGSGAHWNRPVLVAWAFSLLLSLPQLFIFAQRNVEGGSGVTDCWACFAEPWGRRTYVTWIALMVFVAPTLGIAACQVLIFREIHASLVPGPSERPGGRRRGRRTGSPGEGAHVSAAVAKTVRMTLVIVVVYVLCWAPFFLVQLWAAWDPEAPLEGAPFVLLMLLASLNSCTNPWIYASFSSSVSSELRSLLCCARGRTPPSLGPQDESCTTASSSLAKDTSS
Vasopressin V2 receptor (Rattus norvegicus), sequence (Q00788 whole entry, the tested form may be a part): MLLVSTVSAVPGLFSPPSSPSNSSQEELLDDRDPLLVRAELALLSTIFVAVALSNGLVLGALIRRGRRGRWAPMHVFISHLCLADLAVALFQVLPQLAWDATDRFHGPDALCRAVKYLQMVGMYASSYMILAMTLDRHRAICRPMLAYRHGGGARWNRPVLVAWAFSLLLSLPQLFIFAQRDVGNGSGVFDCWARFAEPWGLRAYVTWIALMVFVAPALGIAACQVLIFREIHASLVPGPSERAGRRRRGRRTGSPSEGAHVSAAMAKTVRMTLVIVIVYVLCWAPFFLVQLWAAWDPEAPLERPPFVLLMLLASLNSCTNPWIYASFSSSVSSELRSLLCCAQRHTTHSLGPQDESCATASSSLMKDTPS

As to `Cc1ccccc1C(=O)Nc1ccc(C(=O)N2CCCC(NCCCN3CCCCC3)c3cc(Cl)ccc32)c(C)c1` (stereo not drawn), the Activity entry in data set [1] and in [4] was “Non-Toxic” each time. Moreover, the maximum concentration (Cmax) in data set [2] stood at 419 ng/mL. The molecule further showed a half-life in [3] of 234 min. For the same molecule, the k el in data set [5] is 5e-05 s⁻¹. The solubility (thermodynamic) at 24 h in [6] amounted to 2.3 µg/mL (≈ 4.01 µM). Also, the Tmax in data set [7] was found to be 19.8 min. Also, in [8], the area under the curve AUC(0-t) is 1110 ng·h/mL.
Regarding `Cc1ccccc1C(=O)Nc1ccc(C(=O)N2CCCC(NCCN3CCOCC3)c3cc(Cl)ccc32)c(C)c1` (stereo not drawn), the Activity entry in [1] and in [4] was “Non-Toxic” throughout. Moreover, the peak level in data set [2] (Cmax) was 679 ng/mL. In [3], this molecule gave a half-life of 28.2 min. Also, the k el in data set [5] is 0.000417 s⁻¹. In data set [6], this molecule gave a thermodynamic solubility at 24 h of 2.3 µg/mL (≈ 4.1 µM). For the same molecule, the Tmax in [7] was 4.98 min. This molecule also had an AUC(0-t) in data set [8] of 544 ng·h/mL.
For the molecule `Cc1ccccc1C(=O)Nc1ccc(C(=O)N2CCCC(NCCCCN3CCOCC3)c3cc(Cl)ccc32)c(C)c1` (stereo not drawn), the Activity result in data set [1] and in [4] was “Non-Toxic” in each case. The molecule further returned a Cmax in [2] of 365 ng/mL. The molecule further showed a half-life in [3] of 324 min. In [5], this molecule showed a k el of 3.89e-05 s⁻¹. Moreover, the thermodynamic solubility at 24 h in data set [6] was determined as 2.3 µg/mL (≈ 3.9 µM). For the same molecule, in data set [7], the Tmax worked out at 4.98 min. The molecule also showed an exposure AUC(0-t) in data set [8] of 514 ng·h/mL.
Take `Cc1ccccc1C(=O)Nc1ccc(C(=O)N2CCCC(NCCC(=O)N3CCOCC3)c3cc(Cl)ccc32)c(C)c1` (stereo not drawn): the Activity result in [1] and in [4] was “Non-Toxic” in each case. In data set [2], this molecule showed a maximum concentration (Cmax) of 783 ng/mL. The molecule further showed a half-life in data set [3] of 17.4 min. In data set [5], this molecule showed a k el of 0.000667 s⁻¹. Also, the thermodynamic solubility at 24 h in data set [6] was found to be 2.3 µg/mL (≈ 3.9 µM). Moreover, in data set [7], the time of peak concentration (Tmax) was found to be 8.4 min. Also, the AUC(0-t) in data set [8] was found to be 450 ng·h/mL.
For `CCN(CC)CCCNC1CCCN(C(=O)c2ccc(NC(=O)c3ccccc3C)cc2C)c2ccc(Cl)cc21` (stereo not drawn), the Activity entry in [1] and in [4] was “Non-Toxic” in each case. The molecule further displayed a Cmax in [2] of 426 ng/mL. Moreover, the Ki at Vasopressin V2 receptor came to 31 nM. In data set [3], this molecule had a half-life of 174 min. The k el in data set [5] is 8.33e-05 s⁻¹. For the same molecule, the solubility (thermodynamic) at 24 h in data set [6] came to 2.3 µg/mL (≈ 4.1 µM). The Tmax in [7] is 11.4 min. For the same molecule, in data set [8], the area under the curve AUC(0-t) turned out to be 527 ng·h/mL.
Consider `Cc1ccccc1C(=O)Nc1ccc(C(=O)N2CCCC(NCCCN3CCOCC3)c3cc(Cl)ccc32)c(C)c1` (stereo not drawn), for which the Activity entry in data set [1], in [9] and in data set [4] was “Non-Toxic” in each case. In data set [2], the highest level (Cmax) was 453 ng/mL. The half-life in [3] is 258 min. In data set [5], this molecule had a k el of 4.72e-05 s⁻¹. Besides, the solubility (thermodynamic) at 24 h in data set [6] was determined as 2.3 µg/mL (≈ 4 µM). Moreover, the time to peak (Tmax) in data set [7] worked out at 15 min. For the same molecule, the exposure AUC(0-t) in [8] is 817 ng·h/mL.
As for `Cc1ccccc1C(=O)Nc1ccc(C(=O)N2CCCC(O)c3cc(Cl)ccc32)c(C)c1` (stereo not drawn) [TOLVAPTAN], the Activity result in [1] and in data set [4] was “Non-Toxic” throughout. This molecule had a Cmax in data set [2] of 394 ng/mL. In addition, the half-life in data set [3] was 246 min. This molecule also gave a k el in [5] of 4.72e-05 s⁻¹. The same molecule had a solubility (thermodynamic) at 24 h in [6] of 2.3 µg/mL (≈ 5.12 µM). Besides, the Tmax in [7] came out at 49.8 min. Also, the T1/2 in data set [10] was 23 min. The same molecule came in with an exposure AUC(0-t) in [8] of 824 ng·h/mL.
On to `Cc1ccccc1C(=O)Nc1ccc(C(=O)N2CCCC(NCCCN3CCN(C)CC3)c3cc(Cl)ccc32)c(C)c1` (stereo not drawn), for which the Activity entry in data set [1] and in data set [4] was “Non-Toxic” in each case. This molecule returned a Cmax in data set [2] of 518 ng/mL. In data set [3], this molecule had a half-life of 420 min. In addition, the k el in [5] was 2.75e-05 s⁻¹. Besides, the solubility (thermodynamic) at 24 h in data set [6] was 2.3 µg/mL (≈ 3.91 µM). In data set [7], the Tmax came out at 4.98 min. Moreover, the AUC(0-t) in [8] was found to be 588 ng·h/mL.
With `Cc1ccccc1C(=O)Nc1ccc(C(=O)N2CCCC(NCCCCCN3CCOCC3)c3cc(Cl)ccc32)c(C)c1` (stereo not drawn), the Activity result in data set [1] and in data set [4] was “Non-Toxic” in each case. This molecule returned a Cmax in [2] of 157 ng/mL. Besides, in data set [3], the half-life is 450 min. Besides, the k el in [5] is 2.58e-05 s⁻¹. The same molecule yielded a solubility (thermodynamic) at 24 h in data set [6] of 2.3 µg/mL (≈ 3.81 µM). Moreover, in data set [7], the time to peak (Tmax) stood at 8.4 min. In addition, the AUC(0-t) in data set [8] amounted to 450 ng·h/mL.
As for `Cc1ccccc1C(=O)Nc1ccc(C(=O)N2CCCC(NCCCc3ccncc3)c3cc(Cl)ccc32)c(C)c1` (stereo not drawn), the Activity entry in data set [1] and in data set [4] was “Non-Toxic” each time. In data set [2], this molecule gave a peak concentration (Cmax) of 360 ng/mL. The molecule further had a half-life in [3] of 32 min. This molecule showed a k el in data set [5] of 0.000361 s⁻¹. The thermodynamic solubility at 24 h in data set [6] is 2.3 µg/mL (≈ 4.06 µM). In data set [7], the Tmax came out at 16.7 min. The exposure AUC(0-t) in [8] turned out to be 565 ng·h/mL.
